Broadly, the IC50 is the concentration that inhibits the measured activity by half.

The subject of this assay is MCF-10A cells. The assay can be described thus: MTT cell viability assay. Format: cell-based. The conditions noted are these: Homo sapiens, mean ± SD, read-out: IC50 cell viability inhibition. On the procedure: Cells were cultured in 96-well plates at 2 × 10^5 cells/mL (100 µL per well) and treated the following day with either BA or UA (0.5–50 µM), for 24 h, 48 h and 72 h. Vehicle solvent control cells received DMSO (0.25% v/v). Cell viability was estimated by the 3-(4,5-dimethylthiazol-2-yl)-2,5-diphenyltetrazolium bromide (MTT) assay as previously described by. After treatment incubation, 20 μL of MTT stock solution was added to each well (final concentration 0.5 mg/mL), and plates were incubated at 37 °C, for 4 h. Then, the medium was removed, and the formed formazan crystals were dissolved using a DMSO/ethanol (1:1) solution. Finally, absorbance of the formed product was measured at 570 nm using a microplate reader (MultiSkan FC, Thermo Fisher Scientific, Rochester, NY, USA). The IC50, defined as the concentration necessary to cause 50% inhibition of cell viability, was calculated using GraphPad Prism 5.0 (GraphPad Prism Software Inc., San Diego, CA, USA), by plotting the percentage of cell viability as a function of sample concentration logarithm. Three independent experiments were performed for each treatment.
(In general: Formazan colour is commonly taken as a measure of viable cells.)

Where two headings read alike, the source gives them in different places.

As to `C[C@H]1[C@H](C)CC[C@]2(C(=O)O)CC[C@]3(C)C(=CC[C@@H]4[C@@]5(C)CC[C@H](O)C(C)(C)[C@@H]5CC[C@]43C)[C@H]12` [UA, ursolic acid], the IC50 is 37.9 ± 8.93 µM (24 h), 18.7 ± 3.27 µM (48 h) and 21.5 ± 4.55 µM (72 h).
Consider `C=C(C)[C@@H]1CC[C@]2(C(=O)O)CC[C@]3(C)[C@H](CC[C@@H]4[C@@]5(C)CC[C@H](O)C(C)(C)[C@@H]5CC[C@]43C)[C@@H]12` [BA, betulinic acid], for which the IC50 runs as follows: (24 h) 22.4 ± 6.49 µM; (48 h) 11 ± 1.83 µM; (72 h) 2.38 ± 1.36 µM.

For the origin of these results see paper PMC7464159, “Triple Negative Breast Cancer and Breast Epithelial Cells Differentially Reprogram Glucose and Lipid Metabolism upon Treatment with Triterpenic Acids” (Biomolecules, 2020).
